Data from US8173638B2 (Boehringer Ingelheim International GmbH, priority 2006, dated 2012).
Read-outs that look alike come from different tables or passages of the source.

Target: T1, human CB2R (Homo sapiens, UniProt P34972)
T1 construct: host or cells: CHO cells
Experiment: CB2R mediated modulation of cAMP synthesis
Assay type: cell-based
Conditions: for agonistic activity: found through the use of the described assays (CB2 agonists), qualitative statement; for Emax: 0.5 h, read-out: Agonist Efficacy (%)
Procedure, shortened: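 Forskolin (10 uM)-driven cAMP in human CB2R-expressing CHO cells, read with DiscoverX-XS kit after 30 min compound exposure at 37 °C, 1 mM IBMX, 0.25% BSA. 100% defined as forskolin cAMP relative to 1 uM CP55940 inhibition. Agonist EC50 via four-parameter logistic model.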

[1] = CHO cells expressing human CB2R, cAMP inhibited by 1 uM CP55940 defined as 100%

T1 sequence (P34972 whole entry): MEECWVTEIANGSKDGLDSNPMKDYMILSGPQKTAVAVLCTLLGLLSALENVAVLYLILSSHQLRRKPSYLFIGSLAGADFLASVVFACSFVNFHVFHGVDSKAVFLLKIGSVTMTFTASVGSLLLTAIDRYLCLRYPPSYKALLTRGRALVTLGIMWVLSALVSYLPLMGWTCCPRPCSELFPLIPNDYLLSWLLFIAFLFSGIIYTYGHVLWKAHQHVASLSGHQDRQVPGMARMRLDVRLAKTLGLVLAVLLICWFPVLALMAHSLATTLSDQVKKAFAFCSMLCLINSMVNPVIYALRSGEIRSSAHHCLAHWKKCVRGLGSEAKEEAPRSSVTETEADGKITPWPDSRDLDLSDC

Row | agonistic activity | SMILES | also measured
1 | agonistic activity | CCC(C)c1ccc(NC(=O)N2CCCN(C(=O)c3ccccn3)CC2)cc1 (stereo not shown) [4-(Pyridine-2-carbonyl)-[1,4]diazepane-1-carboxylic acid (4-sec-butyl-phenyl)-amide] | –
2 | agonistic activity | CSc1ccc(NC(=O)N2CCCN(C(=O)CC3CCOCC3)CC2)cc1 [4-(2-Tetrahydro-pyran-4-yl-acetyl)-[1,4]diazepane-1-carboxylic acid (4-methylsulfanyl-phenyl)-amide] | –
3 | agonistic activity | CCCCc1ccc(NC(=O)N2CCCN(C(=O)CC3CCCC3)CC2)cc1 | –
4 | – | CCC(C)c1ccc(NC(=O)N2CCCN(C(=O)C3CCOCC3)CC2)nc1 (stereo not shown) [Compound 196, 4-(Tetrahydro-pyran-4-carbonyl)-[1,4]diazepane-1-carboxylic acid (5-sec-butyl-pyridin-2-yl)-amide] | Emax [1]: 77%; EC50 (read-out: hCB2 cAMP EC50): 47 nM
5 | agonistic activity | CC(C)(C)c1cccc(NC(=O)N2CCCN(C(=O)N3CCS(=O)(=O)CC3)CC2)c1 [4-(1,1-Dioxo-1λ^6-thiomorpholine-4-carbonyl)-[1,4]diazepane-1-carboxylic acid (3-tert-butyl-phenyl)-amide] | –
6 | agonistic activity | CCCCc1ccc(NC(=O)N2CCCN(C(=O)CCC3CCCCC3)CC2)cc1 [4-(3-Cyclohexyl-propionyl)-[1,4]diazepane-1-carboxylic acid (4-butyl-phenyl)-amide] | –
7 | agonistic activity | O=C(CC1CCCC1)N1CCCN(C(=O)Nc2ccc(OC(F)(F)F)cc2)CC1 [4-(2-Cyclopentyl-acetyl)-[1,4]diazepane-1-carboxylic acid (4-trifluoromethoxy-phenyl)-amide] | –
8 | agonistic activity | CSc1ccc(NC(=O)N2CCCN(C(=O)CCC3CCCC3)CC2)cc1 [4-(3-Cyclopentyl-propionyl)-[1,4]diazepane-1-carboxylic acid (4-methylsulfanyl-phenyl)-amide] | –
9 | agonistic activity | O=C(Nc1ccc(C(F)(F)F)cc1)N1CCCN(C(=O)c2ccc(Cl)cc2)CC1 [4-(4-Chloro-benzoyl)-[1,4]diazepane-1-carboxylic acid (4-trifluoromethyl-phenyl)-amide] | –
10 | agonistic activity | CC(c1ccc(NC(=O)N2CCCN(C(=O)N3CCS(=O)(=O)CC3)CC2)cc1)C(F)(F)F (stereo not shown) [4-(1,1-Dioxo-1λ^6-thiomorpholine-4-carbonyl)-[1,4]diazepane-1-carboxylic acid [4-(2,2,2-trifluoro-1-methyl-ethyl)-phenyl]-amide] | –
11 | – | CCC(C)c1ccc(NC(=O)N2CCCN(C(=O)C3CCOCC3)CC2)cc1 (stereo not shown) [Compound 133, 4-(Tetrahydro-pyran-4-carbonyl)-[1,4]diazepane-1-carboxylic acid (4-sec-butyl-phenyl)-amide] | Emax [1]: 97%; EC50 (read-out: hCB2 cAMP EC50): 7.8 nM
12 | agonistic activity | O=C(CC1CCCC1)N1CCCN(C(=O)Nc2ccc(SC(F)(F)F)cc2)CC1 [4-(2-cyclopentyl-acetyl)-[1,4]diazepane-1-carboxylic acid (4-trifluoromethylsulfanyl-phenyl)-amide] | –
13 | agonistic activity | CC(C)(C)CC(=O)N1CCCN(C(=O)Nc2ccc3ccccc3c2)CC1 [4-(3,3-Dimethyl-butyryl)-[1,4]diazepane-1-carboxylic acid naphthalen-2-ylamide] | –
14 | agonistic activity | O=C(CC1CCCC1)N1CCCN(C(=O)Nc2cc(Cl)ccc2Cl)CC1 [4-(2-Cyclopentyl-acetyl)-[1,4]diazepane-1-carboxylic acid (2,5-dichloro-phenyl)-amide] | –
15 | agonistic activity | O=C(Nc1ccc(C(F)(F)F)cc1)N1CCCN(C(=O)C2CCOCC2)CC1 [4-(Tetrahydro-pyran-4-carbonyl)-[1,4]diazepane-1-carboxylic acid (4-trifluoromethyl-phenyl)-amide] | –
16 | – | O=C(Nc1ccc(C(F)(F)F)cc1)N1CCCN(C(=O)c2ccc(C(F)(F)F)cc2)CC1 [Compound 127, 4-(4-Trifluoromethyl-benzoyl)-[1,4]diazepane-1-carboxylic acid (4-trifluomethyl-phenyl)-amide] | Emax [1]: 100%; EC50 (read-out: hCB2 cAMP EC50): 75 nM

Row | agonistic activity | SMILES | also measured
17 | agonistic activity | O=C(Nc1ccc(Oc2ccccc2)nc1)N1CCCN(C(=O)C2CCOCC2)CC1 [4-(Tetrahydro-pyran-4-carbonyl)-[1,4]diazepane-1-carboxylic acid (6-phenoxy-pyridin-3-yl)-amide] | –
18 | agonistic activity | O=C(Nc1ccc(Cl)c(Cl)c1)N1CCCN(C(=O)C2CCCCC2)CC1 [4-Cyclohexanecarbonyl-[1,4]diazepane-1-carboxylic acid (3,4-dichloro-phenyl)-amide] | –
19 | agonistic activity | O=C(Nc1cc(-c2ccccc2)no1)N1CCCN(C(=O)N2CCOCC2)CC1 [4-(Morpholine-4-carbonyl)-[1,4]diazepane-1-carboxylic acid (3-phenyl-isoxazol-5-yl)-amide] | –
20 | agonistic activity | CC(=O)N1CCc2ccc(NC(=O)N3CCCN(C(=O)CC4CCCC4)CC3)cc21 [4-(2-Cyclopentyl-acetyl)-[1,4]diazepane-1-carboxylic acid (1-acetyl-2,3-dihydro-1H-indol-6-yl)-amide] | –
21 | agonistic activity | CCCC(=O)c1ccc(NC(=O)N2CCCN(C(=O)CC3CCCC3)CC2)cc1 [4-(2-Cyclopentyl-acetyl)-[1,4]diazepane-1-carboxylic acid (4-butyryl-phenyl)-amide] | –
22 | agonistic activity | O=C(CC1CCCC1)N1CCCN(C(=O)Nc2ccc(C(F)(F)F)cc2)CC1 [4-(2-Cyclopentyl-acetyl)-[1,4]diazepane-1-carboxylic acid (4-trifluoromethyl-phenyl)-amide] | –
23 | agonistic activity | CCc1ccc(NC(=O)N2CCCN(C(=O)CC3CCCCC3)CC2)cc1 [4-(2-Cyclohexyl-acetyl)-[1,4]diazepane-1-carboxylic acid (4-ethyl-phenyl)-amide] | –
24 | – | O=C(CC1CCCC1)N1CCCN(C(=O)Nc2ccc(Br)c(C(F)(F)F)c2)CC1 [Compound 132, 4-(2-Cyclopentyl-acetyl)-[1,4]diazepane-1-carboxylic acid (4-bromo-3-trifluoromethyl-phenyl)-amide] | Emax [1]: 104%; EC50 (read-out: hCB2 cAMP EC50): 13 nM
25 | agonistic activity | CC(C)(C)c1cc(NC(=O)N2CCCN(C(=O)C3CCCCCC3)CC2)no1 [4-Cycloheptanecarbonyl-[1,4]diazepane-1-carboxylic acid (5-tert-butyl-isoxazol-3-yl)-amide] | –
26 | – | CC(C)(C)c1cc(NC(=O)N2CCCN(C(=O)NC3CCCC3)CC2)no1 [Compound 217, [1,4]Diazepane-1,4-dicarboxylic acid 1-[(5-tert-butyl-isoxazol-3-yl)-amide] 4-cyclopentylamide] | EC50: 32 nM; Emax (CHO): 100%
27 | agonistic activity | CCc1ccnc(NC(=O)N2CCCN(C(=O)C3CCOCC3)CC2)c1 [4-(Tetrahydro-pyran-4-carbonyl)-[1,4]diazepane-1-carboxylic acid (4-ethyl-pyridin-2-yl)-amide] | –
28 | – | O=C(Nc1ccc2ccccc2c1)N1CCCN(C(=O)c2ccc(Cl)cc2)CC1 [Compound 79, 4-(4-Chloro-benzoyl)-[1,4]diazepane-1-carboxylic acid naphthalen-2-ylamide] | Emax [1]: 100%; EC50 (read-out: hCB2 cAMP EC50): 46 nM
29 | agonistic activity | O=C(CC1CCCC1)N1CCCN(C(=O)Nc2ccc(Cl)c(Cl)c2)CC1 [4-(2-Cyclopentyl-acetyl)-[1,4]diazepane-1-carboxylic acid (3,4-dichloro-phenyl)-amide] | –
30 | – | O=C(Nc1ccc2ccccc2c1)N1CCCN(C(=O)c2ccc(C(F)(F)F)cc2)CC1 [Compound 92, 4-(4-Trifluoromethyl-benzoyl)-[1,4]diazepane-1-carboxylic acid naphthalen-2-ylamide] | Emax [1]: 96%; EC50 (read-out: hCB2 cAMP EC50): 14 nM
31 | agonistic activity | CC(C)c1ccc(NC(=O)N2CCCN(C(=O)c3cccc(Cl)c3)CC2)cc1 [4-(3-Chloro-benzoyl)-[1,4]diazepane-1-carboxylic acid (4-isopropyl-phenyl)-amide] | –
32 | – | O=C(Nc1ccc2ccccc2c1)N1CCCN(C(=O)c2ccc(Cl)cc2Cl)CC1 [Compound 99, 4-(2,4-Dichloro-benzoyl)-[1,4]diazepane-1-carboxylic acid naphthalen-2-ylamide] | Emax [1]: 102%; EC50 (read-out: hCB2 cAMP EC50): 100 nM

Row | SMILES | agonistic activity | also measured
33 | CC(C)(C)c1cc(NC(=O)N2CCCN(C(=O)C3CCOCC3)CC2)[nH]n1 [4-(Tetrahydro-pyran-4-carbonyl)-[1,4]diazepane-1-carboxylic acid (5-tert-butyl-2H-pyrazol-3-yl)-amide] | agonistic activity | –
34 | O=C(Nc1nc(-c2ccccc2)cs1)N1CCCN(C(=O)C2CCC(O)CC2)CC1 (stereo not shown) [4-(4-Hydroxy-cyclohexanecarbonyl)-[1,4]diazepane-1-carboxylic acid (4-phenyl-thiazol-2-yl)-amide] | agonistic activity | –
35 | CCCCc1ccc(NC(=O)N2CCCN(C(=O)CC3CCCCC3)CC2)cc1 [4-(2-Cyclohexyl-acetyl)-[1,4]diazepane-1-carboxylic acid (4-butyl-phenyl)-amide] | agonistic activity | –
36 | O=C(Nc1cc(-c2ccccc2)on1)N1CCCN(C(=O)C2CCOCC2)CC1 [4-(Tetrahydro-pyran-4-carbonyl)-[1,4]diazepane-1-carboxylic acid (5-phenyl-isoxazol-3-yl)-amide] | agonistic activity | –
37 | CC(=O)N1CCC(C(=O)N2CCCN(C(=O)Nc3cc(C(C)(C)C)on3)CC2)CC1 [4-(1-Acetyl-piperidine-4-carbonyl)-[1,4]diazepane-1-carboxylic acid (5-tert-butyl-isoxazol-3-yl)-amide] | agonistic activity | –
38 | CC(C)(C)c1cc(NC(=O)N2CCCN(C(=O)N3CCC(F)(F)CC3)CC2)no1 [4-(4,4-Difluoro-piperidine-1-carbonyl)-[1,4]diazepane-1-carboxylic acid (5-tert-butyl-isoxazol-3-yl)-amide] | agonistic activity | –
